Test results reported in patent US8247170B2, “Detection of penicillin tolerance in Group B Streptococcus: single nucleotide polymorphisms in penicillin binding protein 4” (priority 2008, dated 2012).

Tested on: GBS clinical isolates and laboratory strains
Assay: Macrobroth penicillin tolerance assay
Assay type: cell-based, Group B Streptococcus
Conditions: for 10xMIC, regrowth O.D.600: Penicillin G 10×MIC90 48 h; for 10xMIC, regrowth O.D.600 / 30xMIC, regrowth O.D.600 / 100xMIC, regrowth O.D.600 / 300xMIC, regrowth O.D.600: then 24 h drug-free; for 30xMIC, regrowth O.D.600: Penicillin G 30×MIC90 48 h; for 100xMIC, regrowth O.D.600: Penicillin G 100×MIC90 48 h; for 300xMIC, regrowth O.D.600: Penicillin G 300×MIC90 48 h
Method: Using this modified penicillin tolerance assay, tolerant strains from the GBS clinical isolates can be more efficiently identified. In this macrobroth culture format, 25 ml THB broth GBS cultures (containing clinical isolates) were grown to an early exponential growth phase (˜0.2 OD600). Cell cultures (6 ml) were collected and divided into 4 culture tubes. […] Cell cultures were shaken at 150 rpm in order to maintain cells in suspension for proper growth. Subcultures (1/20 dilution) of cells were put into fresh THB containing […] Penase (i.e., 100 μl of Penase 10,000 U stock into 4 ml THB culture). Subcultures were allowed to grow for 24 hours at 37° C. Cell growth was monitored by OD (see Example 2).
(I) Bacterial Strains and Culture Conditions. GBS strains A909 (serotype IA), 515 (serotype IA), NEM316 (serotype III), COHI (serotype III), 2603V/R (serotype V) and O90R (non-typable) were used in this study. E. coli Top10 cells were used for the recombination experiments. GBS was cultured in Todd Hewitt broth (THB) or Tryptic Soy 5% sheep blood (TS) media and E. coli in Luria-broth (LB) medium or agar. Antibiotics were used at the following concentrations: for GBS—penicillin G (MIC90 0.06 μg ml^−1), ampicillin (MIC90 0.12 μg ml^−1), vancomycin (MIC90 2 μg ml^−1), cefazolin (MIC90 1 μg ml^−1) and chloramphenicol (5 μg ml^−1); for E. coli—ampicillin (50 μg ml^−1) and chloramphenicol (5 μg ml^−1). Both GBS and E. coli cultures were grown at 37° C. (II) Tolerance Using the MBC:MIC Ratio Method. Three GBS laboratory strains (i.e., A909, NEM316, and O90R) were cultured overnight for 18 h at 37° C. in THB. Subcultures in THB were subsequently grown to exponential phase (OD600˜0.3; i.e. 5×10^5 cfu/ml) at 37° C. Cell cultures were then exposed to different concentrations of antibiotics (Penicillin G, Ampicillin, Cefozolin or Vancomycin). […] Cell cultures were dispersed every 18 h before OD600 was measured to determine the lowest concentration of antibiotic with 90% growth inhibition (MIC90). Antibiotic treated cells (8 μl) from each well were re-suspended into PBS (100 μl) and plated (54 μl) on TS agar plates and allowed to grow for an additional 24 h at 37° C. Cell count was performed to determine the lowest concentration of antibiotic with 90% killing of original inoculums (MBC90). (III) Penicillin Killing and Regrowth Tolerance Assay by Microbroth Dilution. Three GBS laboratory strains (i.e., A909, NEM316, and O90R) were cultured overnight for 18 h at 37° C. in THB. Subcultures in THB were subsequently grown to exponential phase (OD600˜0.3) at 37° C. Cell cultures were then exposed to different concentrations of Penicillin G (Sigma, St. Louis, Mo.). […] Cell cultures were dispersed. A 1:20 dilution of cells was re-plated into new wells containing fresh THB with 500 U Penase (to degrade residual penicillin). Cell cultures were allowed to re-grow for an additional 24 h at 37° C. before the OD600 was measured. (IV) Measuring Cell Viability by Determining ATP Concentration. GBS strains were cultured for 18 h at 37° C. in THB. These cells were inoculated into fresh THB and subsequently allowed to grow to exponential phase (OD600 0.25-0.3) at 37° C. One ml of each culture was centrifuged at 5,000×g for 4 min. The cell pellet was re-suspended in ATP-free water. Cellular ATP was extracted using trichloroacetic acid (TCA) (5%) for 2 min and subsequently neutralized with Tris-EDTA-0.1M NaOAc, pH 7.75 to 10×TCA volume. The initial (in.) cellular ATP concentration ([ATP]) was measured using the ENLITEN (Promega) luciferase based reaction kit. THB cultures were then treated with 100×MIC90 Penicillin G for 22 h. The experimental (exp.) cellular ATP was extracted and the concentration was measured as stated above. Based on the calculations ([ATP] exp.)/([ATP] in./O.D. in.), differences in viability were equated with the change in [ATP]. (V) Measuring Penicillin Induced Lysis. Three GBS laboratory strains (A909, NEM316, and O90R) were cultured for 18 h at 37° C. in THB. […]

[1] = GBS laboratory strain 2603V/R (V)
[2] = GBS laboratory strain A909 (Ia)
[3] = GBS laboratory strain COH1 (III)
[4] = GBS laboratory strain NEM316 (III)
[5] = GBS laboratory strain O90R (NT)

CC1(C)S[C@@H]2[C@H](NC(=O)Cc3ccccc3)C(=O)N2[C@H]1C(=O)O [Penicillin G]
% of clinical isolates PE-PT (51 clinical isolates): 23.5% | % of clinical isolates PT (penicillin tolerant) (51 clinical isolates): 15.7% | % of clinical isolates S (penicillin susceptible) (51 clinical isolates): 60.8% | Phenotype (GBS laboratory strain 515 (Ia)): Penicillin Tolerance (PT) | 10xMIC, regrowth O.D.600 (GBS laboratory strain 515 (Ia)): ++ (“++” indicates an O.D.600 of 0.251 to 0.750) | 30xMIC, regrowth O.D.600 (GBS laboratory strain 515 (Ia)): +++ (“+++” indicates an O.D.600 of 0.751 to 1.500) | 100xMIC, regrowth O.D.600 (GBS laboratory strain 515 (Ia)): ++ (“++” indicates an O.D.600 of 0.251 to 0.750) | 300xMIC, regrowth O.D.600 (GBS laboratory strain 515 (Ia)): ++ (“++” indicates an O.D.600 of 0.251 to 0.750) | Phenotype [1]: Susceptible (S) | 10xMIC, regrowth O.D.600 [1]: −− (“−−” indicates an O.D.600 of 0.001 to 0.099) | 30xMIC, regrowth O.D.600 [1]: −− (“−−” indicates an O.D.600 of 0.001 to 0.099) | 100xMIC, regrowth O.D.600 [1]: −− (“−−” indicates an O.D.600 of 0.001 to 0.099) | 300xMIC, regrowth O.D.600 [1]: −− (“−−” indicates an O.D.600 of 0.001 to 0.099) | Phenotype [2]: Susceptible (S) | 10xMIC, regrowth O.D.600 [2]: −− (“−−” indicates an O.D.600 of 0.001 to 0.099) | 30xMIC, regrowth O.D.600 [2]: −− (“−−” indicates an O.D.600 of 0.001 to 0.099) | 100xMIC, regrowth O.D.600 [2]: −− (“−−” indicates an O.D.600 of 0.001 to 0.099) | 300xMIC, regrowth O.D.600 [2]: −− (“−−” indicates an O.D.600 of 0.001 to 0.099) | Phenotype [3]: Paradoxical Effect-Penicillin Tolerance | 10xMIC, regrowth O.D.600 [3]: −− (“−−” indicates an O.D.600 of 0.001 to 0.099) | 30xMIC, regrowth O.D.600 [3]: +++ (“+++” indicates an O.D.600 of 0.751 to 1.500) | 100xMIC, regrowth O.D.600 [3]: +++ (“+++” indicates an O.D.600 of 0.751 to 1.500) | 300xMIC, regrowth O.D.600 [3]: ++ (“++” indicates an O.D.600 of 0.251 to 0.750) | Phenotype [4]: Paradoxical Effect-Penicillin Tolerance | 10xMIC, regrowth O.D.600 [4]: +++ (“+++” indicates an O.D.600 of 0.751 to 1.500) | 30xMIC, regrowth O.D.600 [4]: −− (“−−” indicates an O.D.600 of 0.001 to 0.099) | 100xMIC, regrowth O.D.600 [4]: ++ (“++” indicates an O.D.600 of 0.251 to 0.750) | 300xMIC, regrowth O.D.600 [4]: +++ (“+++” indicates an O.D.600 of 0.751 to 1.500) | Phenotype [5]: Penicillin Tolerance (PT) | 10xMIC, regrowth O.D.600 [5]: +++ (“+++” indicates an O.D.600 of 0.751 to 1.500) | 30xMIC, regrowth O.D.600 [5]: +++ (“+++” indicates an O.D.600 of 0.751 to 1.500) | 100xMIC, regrowth O.D.600 [5]: +++ (“+++” indicates an O.D.600 of 0.751 to 1.500) | 300xMIC, regrowth O.D.600 [5]: +++ (“+++” indicates an O.D.600 of 0.751 to 1.500) | 10xMIC, regrowth O.D.600 (GBS strain 12 (III)): −− (“−−” indicates an O.D.600 of 0.001 to 0.099) | 30xMIC, regrowth O.D.600 (GBS strain 12 (III)): −− (“−−” indicates an O.D.600 of 0.001 to 0.099) | 100xMIC, regrowth O.D.600 (GBS strain 12 (III)): −− (“−−” indicates an O.D.600 of 0.001 to 0.099) | 300xMIC, regrowth O.D.600 (GBS strain 12 (III)): −− (“−−” indicates an O.D.600 of 0.001 to 0.099) | 10xMIC, regrowth O.D.600 (GBS strain 18 (NT)): −− (“−−” indicates an O.D.600 of 0.001 to 0.099) | 30xMIC, regrowth O.D.600 (GBS strain 18 (NT)): −− (“−−” indicates an O.D.600 of 0.001 to 0.099) | 100xMIC, regrowth O.D.600 (GBS strain 18 (NT)): −− (“−−” indicates an O.D.600 of 0.001 to 0.099) | 300xMIC, regrowth O.D.600 (GBS strain 18 (NT)): −− (“−−” indicates an O.D.600 of 0.001 to 0.099) | 10xMIC, regrowth O.D.600 (GBS strain 21 (NT)): −− (“−−” indicates an O.D.600 of 0.001 to 0.099) | 30xMIC, regrowth O.D.600 (GBS strain 21 (NT)): −− (“−−” indicates an O.D.600 of 0.001 to 0.099) | 100xMIC, regrowth O.D.600 (GBS strain 21 (NT)): −− (“−−” indicates an O.D.600 of 0.001 to 0.099) | 300xMIC, regrowth O.D.600 (GBS strain 21 (NT)): −− (“−−” indicates an O.D.600 of 0.001 to 0.099) | 10xMIC, regrowth O.D.600 (GBS strain 22 (V)): ++ (“++” indicates an O.D.600 of 0.251 to 0.750) | 30xMIC, regrowth O.D.600 (GBS strain 22 (V)): ++ (“++” indicates an O.D.600 of 0.251 to 0.750) | 100xMIC, regrowth O.D.600 (GBS strain 22 (V)): ++ (“++” indicates an O.D.600 of 0.251 to 0.750) | 300xMIC, regrowth O.D.600 (GBS strain 22 (V)): ++ (“++” indicates an O.D.600 of 0.251 to 0.750) | 10xMIC, regrowth O.D.600 (GBS strain 26 (NT)): −− (“−−” indicates an O.D.600 of 0.001 to 0.099) | 30xMIC, regrowth O.D.600 (GBS strain 26 (NT)): −− (“−−” indicates an O.D.600 of 0.001 to 0.099) | 100xMIC, regrowth O.D.600 (GBS strain 26 (NT)): −− (“−−” indicates an O.D.600 of 0.001 to 0.099) | 300xMIC, regrowth O.D.600 (GBS strain 26 (NT)): −− (“−−” indicates an O.D.600 of 0.001 to 0.099) | 10xMIC, regrowth O.D.600 (GBS strain 46 (Ib)): −− (“−−” indicates an O.D.600 of 0.001 to 0.099) | 30xMIC, regrowth O.D.600 (GBS strain 46 (Ib)): −− (“−−” indicates an O.D.600 of 0.001 to 0.099) | 100xMIC, regrowth O.D.600 (GBS strain 46 (Ib)): −− (“−−” indicates an O.D.600 of 0.001 to 0.099) | 300xMIC, regrowth O.D.600 (GBS strain 46 (Ib)): −− (“−−” indicates an O.D.600 of 0.001 to 0.099) | 10xMIC, regrowth O.D.600 (GBS strain 47 (III)): −− (“−−” indicates an O.D.600 of 0.001 to 0.099) | 30xMIC, regrowth O.D.600 (GBS strain 47 (III)): −− (“−−” indicates an O.D.600 of 0.001 to 0.099)
